Values of other authors, collected in US20070275934A1, “Treatment of pancreatic cancer with active vitamin d compounds in combination with other treatments” (priority 2004, published 2007).

Tested on: patients with refractory malignancies
Details: weekly HDPA, Beer et al. 2001

Mean peak calcitriol levels: within the therapeutic range
SMILES: C=C1/C(=C\C=C2/CCC[C@]3(C)[C@@H]([C@H](C)CCCC(C)(C)O)CC[C@@H]23)C[C@@H](O)C[C@@H]1O [calcitriol, 1α,25-dihydroxyvitamin D3]
Dose-limiting toxicity: no dose-limiting toxicity
